We go through two molecules from ChEMBL document CHEMBL1201862, “PubChem BioAssay data set” (2004).

Test [1] addresses Fibroblast growth factor receptor 1 (Homo sapiens, UniProt P11362). In kind it is functional.
Test [2] addresses Cyclin-dependent kinase 1 (Homo sapiens, UniProt P06493). The test is classed as functional.
Test [3] addresses MAP/microtubule affinity-regulating kinase 3 (Homo sapiens, UniProt P27448). The test is classed as functional.
Test [4] addresses Casein kinase II subunit alpha (Homo sapiens, UniProt P68400). In kind it is functional.
Test [5] has as its target Serine/threonine-protein kinase Chk2 (Homo sapiens, UniProt O96017). In kind it is functional.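 Also: CHEK2 entry within a kinome-wide screening panel.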
In test [6] the target is Aurora kinase A (Homo sapiens, UniProt O14965). The test is classed as functional.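 Also: value from the Navigating the Kinome kinase panel profiling, panel entry STK6.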
Aurora kinase A, sequence (O14965 whole entry): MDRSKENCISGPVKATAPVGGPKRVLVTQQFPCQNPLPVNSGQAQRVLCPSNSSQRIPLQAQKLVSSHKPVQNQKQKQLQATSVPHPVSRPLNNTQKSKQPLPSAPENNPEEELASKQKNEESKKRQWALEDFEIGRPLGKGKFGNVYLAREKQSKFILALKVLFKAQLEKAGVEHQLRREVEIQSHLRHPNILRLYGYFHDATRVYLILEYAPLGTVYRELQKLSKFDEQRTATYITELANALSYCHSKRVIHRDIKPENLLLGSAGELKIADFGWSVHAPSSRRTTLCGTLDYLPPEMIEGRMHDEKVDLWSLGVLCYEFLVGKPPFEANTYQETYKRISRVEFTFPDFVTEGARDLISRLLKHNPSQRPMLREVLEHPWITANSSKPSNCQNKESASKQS
In test [7] the test system is CHO-K1. Briefly: Counterscreen for antagonists of the orexin 1 receptor (OX1R; HCRTR1): Homogeneous time resolved fluorescence (HTRF)-based cell-based dose response assay to identify antagonists of the parental CHO-K1 cell line. [Related pubchem assays (depositor defined):AID434989, AID435008, AID463079, AID485270, AID492963, AID492964, AID492965, AID493232, AID504699, AID504701]. The following applies: Cricetulus griseus. The test is classed as functional. Background: A counterscreen serves to expose hits that act by an unwanted route or on another target.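 Also: potency for inhibition of ATP-stimulated IP1 production as antagonists.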

Test [8] deals with Streptococcus sp. 'group A'. As to the kind of experiment: Streptococcus pyogenes SK(-)GAS viability under kanamycin – luminescence, BacTiterGlo, confirmation, counter-screen for streptokinase expression inhibitor project, dose response (AID 1900). The test is classed as functional, organism-based.
For test [9], the system named is Streptococcus. As to the kind of experiment: GAS UMAA2166 growth inhibition – luminescence, BacTiterGlo, counter-screen for streptokinase expression inhibitor project, dose response (AID 1915).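 Also: potency for reduction of bacterial viability or growth.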 In kind it is functional, organism-based.
Test [10] deals with T1, Protein RecA (Mycobacterium tuberculosis, UniProt P9WHJ3).
T1 sequence (P9WHJ3 whole entry): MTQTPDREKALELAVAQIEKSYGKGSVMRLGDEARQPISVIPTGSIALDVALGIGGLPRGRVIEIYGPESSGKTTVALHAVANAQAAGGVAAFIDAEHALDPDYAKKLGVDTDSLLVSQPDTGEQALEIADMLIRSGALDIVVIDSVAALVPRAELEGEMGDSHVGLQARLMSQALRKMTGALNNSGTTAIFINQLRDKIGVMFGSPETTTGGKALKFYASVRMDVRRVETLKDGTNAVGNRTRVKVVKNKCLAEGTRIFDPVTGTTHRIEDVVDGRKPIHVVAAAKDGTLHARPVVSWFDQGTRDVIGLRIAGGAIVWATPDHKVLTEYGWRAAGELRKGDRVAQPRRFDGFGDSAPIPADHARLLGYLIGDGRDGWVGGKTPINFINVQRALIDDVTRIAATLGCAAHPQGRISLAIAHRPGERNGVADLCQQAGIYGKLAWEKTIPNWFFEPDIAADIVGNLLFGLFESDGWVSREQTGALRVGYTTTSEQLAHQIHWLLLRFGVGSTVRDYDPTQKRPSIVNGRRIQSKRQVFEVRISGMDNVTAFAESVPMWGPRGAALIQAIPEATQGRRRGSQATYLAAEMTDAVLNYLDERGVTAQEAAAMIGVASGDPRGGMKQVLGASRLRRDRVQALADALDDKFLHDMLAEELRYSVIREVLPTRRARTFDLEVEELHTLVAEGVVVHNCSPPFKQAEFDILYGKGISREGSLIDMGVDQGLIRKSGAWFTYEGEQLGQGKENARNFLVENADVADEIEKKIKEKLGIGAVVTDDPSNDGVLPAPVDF
Briefly: Fluorescence Cell-Free Homogeneous Dose Retest to Identify Inhibitors of RecA-Intein Splicing Activity. [Related pubchem assays (depositor defined):AID2097, AID2223, AID489010, AID492950]. The test is classed as functional.

In test [11] the target is T2, Replicative DNA helicase DnaB (Mycobacterium tuberculosis, UniProt P9WMR3).
T2 sequence (P9WMR3 whole entry): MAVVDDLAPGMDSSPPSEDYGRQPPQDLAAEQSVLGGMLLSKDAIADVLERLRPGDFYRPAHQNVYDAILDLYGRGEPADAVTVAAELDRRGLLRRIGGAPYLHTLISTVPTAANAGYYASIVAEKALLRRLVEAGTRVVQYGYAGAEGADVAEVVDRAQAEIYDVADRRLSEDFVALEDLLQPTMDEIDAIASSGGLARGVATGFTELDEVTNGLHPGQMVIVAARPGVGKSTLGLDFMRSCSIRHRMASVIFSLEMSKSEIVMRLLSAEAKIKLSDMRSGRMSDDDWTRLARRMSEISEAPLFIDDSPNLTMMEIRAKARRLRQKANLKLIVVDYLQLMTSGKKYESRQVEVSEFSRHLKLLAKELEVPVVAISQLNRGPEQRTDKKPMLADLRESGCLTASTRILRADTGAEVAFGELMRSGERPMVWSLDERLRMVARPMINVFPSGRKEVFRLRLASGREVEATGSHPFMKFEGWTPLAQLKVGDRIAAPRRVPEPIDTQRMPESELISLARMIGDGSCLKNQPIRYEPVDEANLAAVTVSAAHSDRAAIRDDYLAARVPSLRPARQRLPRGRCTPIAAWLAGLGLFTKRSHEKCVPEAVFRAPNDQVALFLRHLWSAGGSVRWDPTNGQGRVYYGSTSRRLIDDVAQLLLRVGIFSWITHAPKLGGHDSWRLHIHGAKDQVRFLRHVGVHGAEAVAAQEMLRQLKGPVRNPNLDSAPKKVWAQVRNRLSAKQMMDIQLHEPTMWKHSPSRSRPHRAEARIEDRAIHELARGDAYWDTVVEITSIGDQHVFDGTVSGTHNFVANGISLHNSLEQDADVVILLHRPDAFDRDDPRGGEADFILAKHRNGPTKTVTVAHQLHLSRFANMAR
As to the kind of experiment: DnaB intein splicing inhibitors, dose response, biochemical, cell-free fluorescence (AID 449749). The test is classed as functional.

Test [12] concerns the target T3, Orexin/Hypocretin receptor type 1 (Homo sapiens, UniProt O43613). Briefly: Homogeneous Time Resolved Fluorescence (HTRF)-based cell-based high throughput dose response assay for antagonists of the orexin 1 receptor (OX1R; HCRTR1). [Related pubchem assays (depositor defined):AID434989, AID435008, AID463079, AID485270, AID492963, AID492964, AID492965, AID493232, AID504717, AID504718]. In kind it is functional. (In general: Time-resolved FRET reads energy transfer from a long-lived donor to a nearby acceptor.)

A short description of test [13]: Counterscreen for antagonists of the orexin 1 receptor (OX1R; HCRTR1): Fluorescence-based cell-based high throughput dose response assay to identify antagonists of the parental CHO cell line. [Related pubchem assays (depositor defined):AID434989, AID435008, AID463079, AID485270, AID492963, AID492964, AID492965, AID493232, AID504699, AID504701]. In kind it is functional.

A short description of test [14]: fluconazole-exposed Candida albicans growth modulators – fluorescence, retest, confirmation (AID 2467). The test is classed as functional, cell-based.
Test [15] concerns the target T4, Orexin receptor type 2 (Homo sapiens, UniProt O43614). Briefly: Counterscreen assay for antagonists of the orexin 1 receptor (OX1R; HCRTR1): Fluorescence-based cell-based dose response assay for antagonists of the orexin 2 receptor (OX2R; HCRTR2), run by assay provider. In kind it is functional.
For test [16], the target named is T5, Streptokinase A (Streptococcus pyogenes serotype M1, UniProt P10520).
T5 sequence (P10520 whole entry): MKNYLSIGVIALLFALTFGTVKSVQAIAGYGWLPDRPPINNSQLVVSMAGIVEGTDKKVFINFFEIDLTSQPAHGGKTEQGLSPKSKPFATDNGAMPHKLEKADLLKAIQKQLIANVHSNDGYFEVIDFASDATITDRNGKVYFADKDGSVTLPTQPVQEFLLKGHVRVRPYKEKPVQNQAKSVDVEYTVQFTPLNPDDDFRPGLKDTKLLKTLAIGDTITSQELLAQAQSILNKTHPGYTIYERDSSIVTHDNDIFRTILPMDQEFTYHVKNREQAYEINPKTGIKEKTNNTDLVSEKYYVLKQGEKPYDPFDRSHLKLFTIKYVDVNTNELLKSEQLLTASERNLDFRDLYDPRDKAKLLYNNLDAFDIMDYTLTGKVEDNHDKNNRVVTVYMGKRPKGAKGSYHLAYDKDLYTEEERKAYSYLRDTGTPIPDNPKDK
Briefly: viability-normalized secreted streptokinase activity reduction – plasminogen activation absorbance, OD405, dose response (AID 1914).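 Also: secreted streptokinase activity via plasminogen activation per viability signal from cell pellet.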 The test is classed as functional, Streptococcus pyogenes M1 GAS.

In test [17] the test system is INS1. As to the kind of experiment: INS-1E survival protection against cytokine death – cell-based, luminescence, retest, dose response (AID 449756).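 Also: cell death triggered by IL-1 beta plus TNF-alpha plus IFN-gamma mixture; protective hits raise ATP signal compared with cytokine alone wells.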 The test is classed as functional. The following applies: Rattus norvegicus.
The nature of test [18]: general cell-killing toxicity readout – plate reader, dry powder samples, cytotoxicity control for PAX8 inhibitor project, dose response (AID 743021). The test is classed as functional, cell-based.
For test [19], the target named is T4, Orexin receptor type 2. Briefly: Counterscreen assay for antagonists of the orexin 1 receptor (OX1R; HCRTR1): Homogeneous Time Resolved Fluorescence (HTRF)-based cell-based dose response assay for antagonists of the orexin 2 receptor (OX2R; HCRTR2), run by assay provider. In kind it is functional.
Test [20] can be described thus: NIH-3T3 fibroblast cytotoxicity, dose response, cytotoxicity control, cell-based, fluorescence, Alamar Blue, secondary assay (AID 2327).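 Also: NIH-3T3 mouse fibroblasts cultured with fluconazole at 8 µg/mL.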 The test is classed as functional. (Resazurin is reduced to fluorescent resorufin, in cell work by metabolically active cells.)
Test [21] addresses T3, Orexin/Hypocretin receptor type 1. As to the kind of experiment: Fluorescence-based cell-based high throughput dose response assay for antagonists of the orexin 1 receptor (OX1R; HCRTR1). [Related pubchem assays (depositor defined):AID434989, AID435008, AID463079, AID485270, AID492963, AID492964, AID492965, AID493232, AID504717, AID504718]. The test is classed as functional.

Test [22] in a line: viability of uninfected HEp-2 cells – cell-based, HTS, cytotoxicity control for RSV inhibitor project, dose response (AID 2410). In kind it is functional. The following applies: human respiratory syncytial virus.
For test [23], the target named is Paired box protein Pax-8 (Homo sapiens, UniProt Q06710). As to the kind of experiment: PAX8 transcriptional activity inhibition in RMG-I – RMG-I cells, luciferase, cherry-pick, dose response (AID 687027).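 Also: luciferase reporter driven by Pax8 target thyroperoxidase promoter measured by SteadyGlo luminescence.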 In kind it is functional, cell-based.
Paired box protein Pax-8, sequence (Q06710 whole entry): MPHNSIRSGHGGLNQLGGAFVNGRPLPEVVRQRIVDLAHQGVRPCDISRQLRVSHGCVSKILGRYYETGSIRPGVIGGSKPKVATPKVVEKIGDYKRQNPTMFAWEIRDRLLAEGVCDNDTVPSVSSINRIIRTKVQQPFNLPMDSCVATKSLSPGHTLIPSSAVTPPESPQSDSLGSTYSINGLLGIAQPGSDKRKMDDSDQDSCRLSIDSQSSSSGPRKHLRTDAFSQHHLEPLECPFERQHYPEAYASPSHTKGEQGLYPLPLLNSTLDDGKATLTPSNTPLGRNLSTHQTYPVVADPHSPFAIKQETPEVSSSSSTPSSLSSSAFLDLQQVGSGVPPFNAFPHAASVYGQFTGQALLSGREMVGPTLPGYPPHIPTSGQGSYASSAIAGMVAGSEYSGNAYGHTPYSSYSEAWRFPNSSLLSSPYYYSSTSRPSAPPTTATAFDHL

Calls of active or inactive are those of the source. Where only a bound is given, the exact number is not on record here.

T4 sequence (O43614 whole entry): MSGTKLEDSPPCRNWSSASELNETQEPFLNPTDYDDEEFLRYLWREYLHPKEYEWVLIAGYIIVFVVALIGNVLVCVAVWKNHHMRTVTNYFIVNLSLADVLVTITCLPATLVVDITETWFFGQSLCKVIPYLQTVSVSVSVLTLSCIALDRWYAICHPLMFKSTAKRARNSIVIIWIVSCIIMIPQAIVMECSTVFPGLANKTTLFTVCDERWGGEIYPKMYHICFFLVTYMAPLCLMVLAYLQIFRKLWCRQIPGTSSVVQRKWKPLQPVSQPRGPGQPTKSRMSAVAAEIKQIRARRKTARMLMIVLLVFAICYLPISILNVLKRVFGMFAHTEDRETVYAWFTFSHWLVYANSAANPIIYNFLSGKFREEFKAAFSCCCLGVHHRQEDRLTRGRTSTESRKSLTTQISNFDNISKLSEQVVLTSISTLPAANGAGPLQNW
T3 sequence (O43613 whole entry): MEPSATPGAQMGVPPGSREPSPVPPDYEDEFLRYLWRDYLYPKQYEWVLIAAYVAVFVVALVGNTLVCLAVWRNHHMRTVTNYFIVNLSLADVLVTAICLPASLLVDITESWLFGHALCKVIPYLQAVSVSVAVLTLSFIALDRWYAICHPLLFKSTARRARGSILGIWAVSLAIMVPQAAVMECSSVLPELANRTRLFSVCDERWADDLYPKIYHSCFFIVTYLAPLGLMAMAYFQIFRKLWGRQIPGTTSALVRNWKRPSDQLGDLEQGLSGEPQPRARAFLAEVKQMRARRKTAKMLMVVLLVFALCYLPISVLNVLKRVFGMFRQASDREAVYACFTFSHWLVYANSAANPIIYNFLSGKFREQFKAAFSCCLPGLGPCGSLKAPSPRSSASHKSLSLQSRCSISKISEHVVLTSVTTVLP
Casein kinase II subunit alpha, sequence (P68400 whole entry): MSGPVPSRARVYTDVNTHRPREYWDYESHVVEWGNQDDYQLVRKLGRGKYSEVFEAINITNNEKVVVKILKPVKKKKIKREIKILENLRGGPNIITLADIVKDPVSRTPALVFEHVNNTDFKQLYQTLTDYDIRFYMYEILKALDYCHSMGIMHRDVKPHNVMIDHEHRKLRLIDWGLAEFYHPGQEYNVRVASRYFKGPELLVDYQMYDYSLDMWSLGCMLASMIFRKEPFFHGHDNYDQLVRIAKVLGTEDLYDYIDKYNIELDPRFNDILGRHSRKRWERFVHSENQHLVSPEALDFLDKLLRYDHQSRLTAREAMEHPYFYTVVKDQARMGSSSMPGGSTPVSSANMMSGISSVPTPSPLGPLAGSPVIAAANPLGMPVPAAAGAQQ
Fibroblast growth factor receptor 1, sequence (P11362 whole entry): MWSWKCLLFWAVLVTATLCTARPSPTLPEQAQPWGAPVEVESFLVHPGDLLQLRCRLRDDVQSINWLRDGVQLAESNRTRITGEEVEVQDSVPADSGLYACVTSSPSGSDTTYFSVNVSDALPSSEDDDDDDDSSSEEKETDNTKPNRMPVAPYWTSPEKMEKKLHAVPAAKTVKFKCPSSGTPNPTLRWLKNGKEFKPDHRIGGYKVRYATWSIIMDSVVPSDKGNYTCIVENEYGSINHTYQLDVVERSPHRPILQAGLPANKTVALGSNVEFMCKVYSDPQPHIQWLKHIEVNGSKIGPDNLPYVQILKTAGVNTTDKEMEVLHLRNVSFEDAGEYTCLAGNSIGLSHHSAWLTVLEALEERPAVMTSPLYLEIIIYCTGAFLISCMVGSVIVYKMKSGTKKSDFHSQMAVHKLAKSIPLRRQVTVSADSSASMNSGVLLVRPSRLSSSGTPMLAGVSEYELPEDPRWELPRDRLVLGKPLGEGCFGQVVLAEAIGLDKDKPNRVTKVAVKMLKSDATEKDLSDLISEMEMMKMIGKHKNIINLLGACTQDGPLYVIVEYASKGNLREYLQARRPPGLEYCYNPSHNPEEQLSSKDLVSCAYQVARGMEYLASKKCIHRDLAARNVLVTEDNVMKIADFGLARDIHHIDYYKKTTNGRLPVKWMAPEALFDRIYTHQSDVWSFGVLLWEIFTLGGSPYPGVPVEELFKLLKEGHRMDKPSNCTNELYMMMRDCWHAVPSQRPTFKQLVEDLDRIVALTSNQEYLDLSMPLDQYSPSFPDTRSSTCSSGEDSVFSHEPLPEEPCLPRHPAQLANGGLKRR
MAP/microtubule affinity-regulating kinase 3, sequence (P27448 whole entry): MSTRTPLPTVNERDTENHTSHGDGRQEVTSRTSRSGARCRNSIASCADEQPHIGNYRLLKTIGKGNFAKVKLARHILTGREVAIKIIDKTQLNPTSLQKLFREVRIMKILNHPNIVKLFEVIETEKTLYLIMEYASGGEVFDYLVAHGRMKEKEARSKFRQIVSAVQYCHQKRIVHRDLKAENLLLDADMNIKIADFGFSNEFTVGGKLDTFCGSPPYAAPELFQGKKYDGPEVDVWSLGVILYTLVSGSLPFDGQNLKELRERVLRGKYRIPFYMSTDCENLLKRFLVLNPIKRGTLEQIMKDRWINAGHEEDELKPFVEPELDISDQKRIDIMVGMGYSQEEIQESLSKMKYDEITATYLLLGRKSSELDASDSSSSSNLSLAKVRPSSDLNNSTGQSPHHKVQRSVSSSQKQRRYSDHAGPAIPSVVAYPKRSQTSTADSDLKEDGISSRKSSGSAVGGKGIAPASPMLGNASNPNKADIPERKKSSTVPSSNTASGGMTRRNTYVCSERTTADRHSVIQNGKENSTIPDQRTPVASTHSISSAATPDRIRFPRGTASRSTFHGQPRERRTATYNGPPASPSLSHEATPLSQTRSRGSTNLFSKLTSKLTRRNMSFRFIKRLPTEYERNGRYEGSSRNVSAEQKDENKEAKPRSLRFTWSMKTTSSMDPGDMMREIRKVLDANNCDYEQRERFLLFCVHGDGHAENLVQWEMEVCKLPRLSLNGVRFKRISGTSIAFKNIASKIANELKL
Cyclin-dependent kinase 1, sequence (P06493 whole entry): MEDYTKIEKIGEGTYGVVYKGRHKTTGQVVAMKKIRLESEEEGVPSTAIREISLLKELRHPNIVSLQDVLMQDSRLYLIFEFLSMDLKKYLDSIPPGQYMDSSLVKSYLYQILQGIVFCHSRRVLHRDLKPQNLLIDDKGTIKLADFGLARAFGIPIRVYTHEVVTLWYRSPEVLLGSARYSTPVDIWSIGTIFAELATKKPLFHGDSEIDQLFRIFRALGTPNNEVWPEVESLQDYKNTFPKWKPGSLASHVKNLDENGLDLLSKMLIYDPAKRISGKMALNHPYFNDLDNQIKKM
Serine/threonine-protein kinase Chk2, sequence (O96017 whole entry): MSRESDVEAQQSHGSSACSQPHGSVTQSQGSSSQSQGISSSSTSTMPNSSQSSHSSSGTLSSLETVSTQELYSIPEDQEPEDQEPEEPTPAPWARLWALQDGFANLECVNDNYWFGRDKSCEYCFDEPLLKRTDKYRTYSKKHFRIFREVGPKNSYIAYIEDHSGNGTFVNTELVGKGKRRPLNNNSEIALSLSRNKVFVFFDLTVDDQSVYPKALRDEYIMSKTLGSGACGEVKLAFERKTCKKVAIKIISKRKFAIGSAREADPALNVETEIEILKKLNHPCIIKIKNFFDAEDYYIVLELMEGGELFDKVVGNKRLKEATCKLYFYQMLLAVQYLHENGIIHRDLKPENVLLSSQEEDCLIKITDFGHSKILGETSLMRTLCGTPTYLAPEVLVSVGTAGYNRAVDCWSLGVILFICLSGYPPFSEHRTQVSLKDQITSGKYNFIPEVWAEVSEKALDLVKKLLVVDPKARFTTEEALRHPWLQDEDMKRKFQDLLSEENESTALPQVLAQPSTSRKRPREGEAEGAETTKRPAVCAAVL

A word on the Ki: it is the equilibrium dissociation constant of an inhibitor or competing ligand from its target. Regarding `Fc1ccc2c(c1)-c1n[nH]cc1CS2`, the Ki was 10 µM (active) in test [1]; 15.8 µM (active) in test [2]; 12.6 µM (active) in [3]; 6.31 µM (active) in test [4]; 6.31 µM (active) in [5]; 5.01 µM (active) in [6].
The IC50 is the concentration that inhibits the measured activity by half. The EC50 is the concentration needed to bring the measured effect to its halfway point. One may read the AC50 as the concentration at which the activity in the assay is half-maximal. Broadly, the CC50 is the concentration that lowers cell viability or growth by half. Turning to `COc1cccc(/C=N/Nc2cc(C)nc(-c3ccccc3O)n2)c1O`, the IC50 is > 66.2 µM (inactive) in [7]; 2.91 µM (active) in test [12]; > 49.8 µM (inactive) in test [13]; 11.9 µM (inactive) in [15]; > 50 µM (inactive) in test [19]; 3.31 µM (active) in test [21]. The EC50 in test [8] is 0.876 µM (active); in test [9] it was 6.64 µM (active); in test [10] it was 357 µM (inconclusive); in test [14], 0.294 µM (active); in [16], > 150 µM (not active); in [20], 5.22 µM (inconclusive). Besides, the AC50 in test [11] was 30.1 µM (active); in test [17] it was 1.93 µM (active); in test [18] it was 16.2 µM (active); in [23], 5.5 µM (active). Also, in test [22], the CC50 was 5.1 µM (active).
